# Test results taken from paper PMC8880361, “Design, Molecular Docking, Synthesis, Anticancer and Anti-Hyperglycemic Assessments of Thiazolidine-2,4-diones Bearing Sulfonylthiourea Moieties as Potent VEGFR-2 Inhibitors and PPARγ Agonists” (Pharmaceuticals, 2022).
# How the values were obtained:
# HepG2 = experiment: In vitro cytotoxicity, MTT colorimetric assay; type: cell-based, human; conditions: for IC50: Homo sapiens, HepG2, MTT, mean ± S.D. of triplet separate experiments; for fold more toxic against HepG2 than normal VERO cells: ratio VERO vs HepG2
# VEGFR-2 = VEGFR-2 (Homo sapiens, UniProt P35968); experiment: In vitro VEGFR-2 kinase assay (anti-phosphotyrosine antibody, Alpha Screen system); type: biochemical; conditions: mean ± S.D. of triplet separate experiments
# HCT116 = experiment: In vitro cytotoxicity, MTT colorimetric assay; type: cell-based, human; conditions: for IC50: Homo sapiens, HCT-116, MTT, mean ± S.D. of triplet separate experiments; for fold more toxic in HCT-116 than in normal VERO cells: ratio VERO vs HCT-116
# MCF-7 = experiment: In vitro cytotoxicity, MTT colorimetric assay; type: cell-based, human; conditions: for IC50: Homo sapiens, MCF7, MTT, mean ± S.D. of triplet separate experiments; for fold higher toxicity in MCF-7 than in normal VERO cells: ratio VERO vs MCF-7
# [1] = tested on: isolated pancreatic islets of rats; experiment: In vitro insulin secretion assay (sandwich enzyme immunoassay); type: cell-based; conditions: Pancreatic islet; isolated rat pancreatic islets; concentration for 50% of the maximum action; n = 3; read-out: EC50 Insulin Secreting Activity
# Procedure: Compounds 5a–c, 6a–c and 7a–c were also assessed to establish their insulin-secretion activities in vitro against isolated pancreatic islets of rats through the quantitative sandwich technique of enzyme immunoassay. Glimiperide was applied as the standard. The findings are described as the EC50 values (Table 4).
# PPARγ = molecular target: T1, PPARγ (Homo sapiens, UniProt P37231); experiment: In vitro PPARγ ligand binding assay (Fluorescence Polarization); conditions: concentration required to displace 50% of the titrated ligand; n = 3; read-out: IC50 PPARγ Binding Affinity
# T1 sequence (P37231 1-505): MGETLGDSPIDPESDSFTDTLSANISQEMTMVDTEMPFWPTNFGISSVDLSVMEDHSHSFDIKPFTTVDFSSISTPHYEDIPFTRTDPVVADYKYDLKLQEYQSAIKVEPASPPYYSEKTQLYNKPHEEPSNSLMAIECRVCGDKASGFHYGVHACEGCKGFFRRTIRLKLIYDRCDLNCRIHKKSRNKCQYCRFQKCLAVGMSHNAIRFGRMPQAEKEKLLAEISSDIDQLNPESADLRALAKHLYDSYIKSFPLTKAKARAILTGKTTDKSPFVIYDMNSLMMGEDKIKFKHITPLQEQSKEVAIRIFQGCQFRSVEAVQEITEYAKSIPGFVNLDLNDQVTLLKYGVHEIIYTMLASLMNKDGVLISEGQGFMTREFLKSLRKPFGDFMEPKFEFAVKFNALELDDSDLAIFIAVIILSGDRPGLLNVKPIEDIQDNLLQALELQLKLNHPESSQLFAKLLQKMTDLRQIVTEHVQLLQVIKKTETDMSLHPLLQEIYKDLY
# VERO normal cell lines = experiment: Cytotoxicity against normal cells; type: cell-based; conditions: Chlorocebus sabaeus, mean ± S.D. of triplet separate experiments
# Procedure: The cytotoxic effects of the prepared derivatives against the malignant cell lines ranged from 5.77 to 17.65 μM. Derivatives 6a–c and 7a–c were, respectively, 3.41-, 3.83-, 6.93-, 4.99-, 5.45- and 7.74-fold times more toxic against HepG2 than normal VERO cells. Similarly, derivatives 6a-c and 7a-c were, respectively, 2.74-, 2.97-, 6.04-, 3.58-, 3.90- and 11.83-fold more toxic in HCT-116 than in normal VERO cells.
# Sequence of VEGFR-2 (P35968 20-1356): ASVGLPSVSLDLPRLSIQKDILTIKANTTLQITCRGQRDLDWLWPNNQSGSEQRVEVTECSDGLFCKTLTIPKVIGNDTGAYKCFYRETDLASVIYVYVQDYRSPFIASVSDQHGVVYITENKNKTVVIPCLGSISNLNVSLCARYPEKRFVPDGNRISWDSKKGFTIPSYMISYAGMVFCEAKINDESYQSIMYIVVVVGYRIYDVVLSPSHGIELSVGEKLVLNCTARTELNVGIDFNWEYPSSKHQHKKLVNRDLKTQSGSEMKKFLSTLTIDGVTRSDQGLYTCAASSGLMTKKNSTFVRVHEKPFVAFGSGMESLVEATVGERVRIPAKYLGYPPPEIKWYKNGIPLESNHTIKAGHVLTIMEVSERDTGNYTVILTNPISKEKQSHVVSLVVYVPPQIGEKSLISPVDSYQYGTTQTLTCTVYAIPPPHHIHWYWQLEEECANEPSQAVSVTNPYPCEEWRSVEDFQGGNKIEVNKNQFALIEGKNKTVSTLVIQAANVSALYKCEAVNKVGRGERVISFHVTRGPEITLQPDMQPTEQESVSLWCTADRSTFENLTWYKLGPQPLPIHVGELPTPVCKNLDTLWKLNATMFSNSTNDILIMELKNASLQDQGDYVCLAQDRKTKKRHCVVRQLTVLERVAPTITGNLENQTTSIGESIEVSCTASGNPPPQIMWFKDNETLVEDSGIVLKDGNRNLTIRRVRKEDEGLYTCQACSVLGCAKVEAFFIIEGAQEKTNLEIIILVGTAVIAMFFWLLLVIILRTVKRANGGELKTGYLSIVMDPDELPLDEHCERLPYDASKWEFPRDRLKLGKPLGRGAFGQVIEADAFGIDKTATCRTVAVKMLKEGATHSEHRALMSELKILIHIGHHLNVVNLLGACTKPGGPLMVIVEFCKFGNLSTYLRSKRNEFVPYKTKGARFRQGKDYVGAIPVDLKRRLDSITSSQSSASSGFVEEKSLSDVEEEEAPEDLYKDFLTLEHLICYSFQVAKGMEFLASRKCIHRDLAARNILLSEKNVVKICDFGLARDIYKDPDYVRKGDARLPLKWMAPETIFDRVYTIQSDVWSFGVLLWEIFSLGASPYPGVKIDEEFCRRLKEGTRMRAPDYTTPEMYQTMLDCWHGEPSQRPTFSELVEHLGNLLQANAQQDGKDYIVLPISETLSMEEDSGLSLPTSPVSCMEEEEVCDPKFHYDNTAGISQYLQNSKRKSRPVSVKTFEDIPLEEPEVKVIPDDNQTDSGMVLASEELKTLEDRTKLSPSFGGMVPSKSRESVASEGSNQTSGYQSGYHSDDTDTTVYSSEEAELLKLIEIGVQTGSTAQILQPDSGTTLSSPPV
SMILES,IC50 (HepG2) [µM],IC50 (VEGFR-2) [µM],IC50 (HCT116) [µM],IC50 (MCF-7) [µM],melting point [°C],EC50 [1] [µM],IC50 (PPARγ) [µM],fold more toxic against HepG2 than normal VERO cells (HepG2) [fold],IC50 (VERO normal cell lines) [µM],fold more toxic in HCT-116 than in normal VERO cells (HCT116) [fold],fold higher toxicity in MCF-7 than in normal VERO cells (MCF-7) [fold]
"NS(=O)(=O)c1ccc(NC(=O)CN2C(=O)CSC2=O)cc1 [Compound 3, 2-(2,4-Dioxothiazolidin-3-yl)-N-(4-Sulfamoylphenyl)-Acetamide]",58.6 ± 5.1,0.93 ± 0.06,61.5 ± 5.1,60.2 ± 5.1,–,–,–,–,–,–,–
"NS(=O)(=O)c1ccc(NC(=O)CN2C(=O)SC(=Cc3ccccc3)C2=O)cc1 [Compound 4a, 2-(5-Benzylidene-2,4-dioxothiazolidin-3-yl)-N-(4-sulfamoylphenyl)acetamide]",52.9 ± 5.1,0.92 ± 0.06,55.1 ± 5.1,55 ± 5.1,226 to 228,–,–,–,–,–,–
"Cc1ccc(C=C2SC(=O)N(CC(=O)Nc3ccc(S(N)(=O)=O)cc3)C2=O)cc1 [Compound 4b, 2-(5-(4-Methylbenzylidene)-2,4-dioxothiazolidin-3-yl)-N-(4-sulfamoylphenyl)acetamide]",48.6 ± 5.1,0.89 ± 0.06,57.9 ± 5.1,62.4 ± 5.1,240 to 242,–,–,–,–,–,–
"CCNC(=S)NS(=O)(=O)c1ccc(NC(=O)CN2C(=O)CSC2=O)cc1 [Compound 5a, 2-(2,4-Dioxothiazolidin-3-yl)-N-(4-(N-(ethylcarbamothioyl)sulfamoyl)phenyl)acetamide]",24.5 ± 2.2,0.46 ± 0.05,40.1 ± 2.2,28.8 ± 2.2,–,1.2,0.393,–,–,–,–
"O=C(CN1C(=O)CSC1=O)Nc1ccc(S(=O)(=O)NC(=S)Nc2ccccc2)cc1 [Compound 5b, 2-(2,4-Dioxothiazolidin-3-yl)-N-(4-(N-(phenylcarbamothioyl)sulfamoyl)phenyl)acetamide]",22 ± 2,0.44 ± 0.05,25.7 ± 2,23.2 ± 2,262 to 264,1.13,0.377,–,–,–,–
"O=C(CN1C(=O)CSC1=O)Nc1ccc(S(=O)(=O)NC(=S)NC2CCCCC2)cc1 [Compound 5c, N-(4-(N-(Cyclohexylcarbamothioyl)sulfamoyl)phenyl)-2-(2,4-dioxothiazolidin-3-yl)acetamide]",20.8 ± 2.6,0.44 ± 0.05,23.6 ± 2.6,24.6 ± 2.6,267 to 269,1,0.36,–,–,–,–
"CCNC(=S)NS(=O)(=O)c1ccc(NC(=O)CN2C(=O)SC(=Cc3ccccc3)C2=O)cc1 [Compound 6a, 2-(5-Benzylidene-2,4-dioxothiazolidin-3-yl)-N-(4-(N-(ethylcarbamothioyl)sulfamoyl)phenyl)acetamide]",14.2 ± 2.3,0.17 ± 0.02,17.7 ± 2.3,16.5 ± 2.3,282 to 284,0.87,0.323,3.41,48.31 ± 0.22,2.74,2.93
"O=C(CN1C(=O)SC(=Cc2ccccc2)C1=O)Nc1ccc(S(=O)(=O)NC(=S)Nc2ccccc2)cc1 [Compound 6b, 2-(5-Benzylidene-2,4-dioxothiazolidin-3-yl)-N-(4-(N-(phenylcarbamothioyl)sulfamoyl)phenyl)-acetamide]",10.7 ± 1.6,0.15 ± 0.02,13.8 ± 1.2,13 ± 1.2,286 to 288,0.78,0.308,3.83,40.88 ± 0.22,2.97,3.16
"O=C(CN1C(=O)SC(=Cc2ccccc2)C1=O)Nc1ccc(S(=O)(=O)NC(=S)NC2CCCCC2)cc1 [Compound 6c, 2-(5-Benzylidene-2,4-dioxothiazolidin-3-yl)-N-(4-(N-(cyclohexylcarbamothioyl)sulfamoyl)phenyl)-acetamide]",8.99 ± 1.2,0.08 ± 0.02,7.11 ± 1.7,8.15 ± 1.6,–,0.7,0.3,6.93,49.26 ± 0.22,6.04,–
"CCNC(=S)NS(=O)(=O)c1ccc(NC(=O)CN2C(=O)SC(=Cc3ccc(C)cc3)C2=O)cc1 [Compound 7a, N-(4-(N-(Ethylcarbamothioyl)sulfamoyl)phenyl)-2-(5-(4-methylbenzylidene)-2,4-dioxothiazolidin-3-yl)acetamide]",12.1 ± 1.5,0.14 ± 0.02,16.8 ± 1.5,16.7 ± 1.5,285 to 287,0.81,0.32,4.99,60.12 ± 0.18,3.58,3.61
"Cc1ccc(C=C2SC(=O)N(CC(=O)Nc3ccc(S(=O)(=O)NC(=S)Nc4ccccc4)cc3)C2=O)cc1 [Compound 7b, 2-(5-(4-Methylbenzylidene)-2,4-dioxothiazolidin-3-yl)-N-(4-(N-(phenylcarbamothioyl)sulfamoyl)-phenyl)acetamide]",9.65 ± 1.7,0.11 ± 0.02,13.5 ± 1.6,12.9 ± 1.7,–,0.75,0.305,5.45,52.61 ± 0.22,3.90,4.08
"Cc1ccc(C=C2SC(=O)N(CC(=O)Nc3ccc(S(=O)(=O)NC(=S)NC4CCCCC4)cc3)C2=O)cc1 [Compound 7c, N-(4-(N-(Cyclohexylcarbamothioyl)sulfamoyl)phenyl)-2-(5-(4-methylbenzylidene)-2,4-dioxothiazolidin-3-yl)acetamide]",8.82 ± 1.9,0.08 ± 0.02,5.77 ± 1.9,7.78 ± 1.9,–,0.7,0.296,7.74,68.25 ± 0.21,11.83,8.77
"COc1cccc2c1C(=O)c1c(O)c3c(c(O)c1C2=O)C[C@@](O)(C(=O)CO)C[C@@H]3O[C@H]1C[C@H](N)[C@H](O)[C@H](C)O1 [Doxorubicin, reference compound]",7.94 ± 0.6,–,–,6.75 ± 0.4,–,–,–,–,–,–,–
"CCC1=C(C)CN(C(=O)NCCc2ccc(S(=O)(=O)NC(=O)N[C@H]3CC[C@H](C)CC3)cc2)C1=O [Glimiperide, reference compound]",–,–,–,–,–,0.73,–,–,–,–,–
